Reference: patent US20250229272A1, “Headspace Eliminating Microtiter Plate Lid” (Agilent Technologies, Inc., priority 2022, published 2025)

Tested on: mitochondrial network
Assay: MitoTracker imaging of the mitochondrial network in cells incubated with compounds (Cytation 5)
Format: cell-based
Conditions: cells loaded with MitoTracker and hoechst; imaged while incubating with compounds; compared to the control; FIG. 15
Experimental: Cells were loaded with MitoTracker and hoechst as per manufactures instructions. Cells were washed with media then the media was replaced with media containing MitoXpress Xtra. Imaging was carried out as the plate was incubating with compounds using a Cytation 5 with a RFP LED/Filter set. Then, the lid of the present disclosure was placed onto the base of the plate assembly and MitoXpress Assay was run as normal.
The effects in structure are then reflected in the rates of oxygen consumption showing a direct correlation between structure and function. Different compounds lead to different effects. Some promote fusion, some inhibit fusion, some fission some limit fission. The novel insight with this method is to correlate changes in structure of the mitochondria to functional changes in respiration as shown in FIG. 16 in the same well for the first time.

Compound | effects of compounds on the mitochondrial network
CC[C@H]1/C=C/C=C/C[C@@H](C)[C@H](O)[C@@](C)(O)C(=O)[C@@H](C)[C@H](O)[C@@H](C)C(=O)[C@@H](C)[C@H](O)[C@@H](C)/C=C/C(=O)O[C@@H]2[C@H](C)[C@H](CC1)O[C@]1(CC[C@H](C)[C@H](C[C@@H](C)O)O1)[C@H]2C [Oligomycin] | cause the network to condense, and divide
C=C(C)[C@H]1Cc2c(ccc3c2O[C@@H]2COc4cc(OC)c(OC)cc4[C@@H]2C3=O)O1 [Rotenone] | cause the network to condense, and divide
Antimycin | cause the network to condense, and divide
